91 compounds from a melting point compilation (Tetko et al.; mined from patent text by program, amines drawn as free bases though some values may be those of a salt) can be followed below.

Residues, ends and D or L forms follow the SMILES beside them. *: point of attachment. Boc = CC(C)(C)OC(=O)*; OBn = c1ccc(CO*)cc1; Bn = c1ccc(C*)cc1

For the compound `O=C(O)C1(C(=O)O)CC(C2CCC2)C1`, the melting point (as a rule, the temperature, or range, at which the solid turns liquid) lay in the range of 150 to 151 °C.
Turning to `O=c1[nH]c(NCCSCc2ccco2)ncc1Cc1cccnc1`, the melting point lay in the range of 136 to 139 °C.
Compound `CC(C)(C)OC(=O)N1CCC(Oc2ccc(C#N)c(/C=C/N3CCCC3)c2)CC1` displayed a melting point of 115 to 117 °C.
The value for `CCCCCCCCCCC(O)C(O)CNCc1ccccc1` (stereo unspecified) was 52.6 to 53 °C; that for `COc1ccc(CC(C#N)c2cc(OC)c(OC)c(OC)c2)cc1` (stereo unspecified) was 82 to 83 °C.
As for `CC(=O)NCc1cncn1C1c2ccccc2CCC1(C)C` (stereo unspecified), the melting point was determined as 166 °C.
Turning to `CN1CCC(C(=O)O)(S(=O)(=O)c2ccc(Oc3ccc(Cl)cc3)cc2)CC1`, the melting point came to 185 °C.
On to `CC(c1cccc(C#N)n1)C(O)(Cn1cncn1)c1ccc(F)cc1F` (stereo unspecified), for which the melting point lay in the range of 144 to 146 °C.
In the case of `CON=Cc1ccc2c(c1)ncn2-c1cccc(-c2ccncn2)c1` it was 180 to 182 °C.
The compound `CSC(=C[N+](=O)[O-])NCCSCc1ccc(CN(C)C)o1` came in with a melting point of 71 °C.
The compound `COC(=O)c1ccc(Cl)cc1C1(c2ccccc2F)OCC(CCl)O1` (stereo unspecified) came in with a melting point of 117 to 122 °C.
Turning to `O=C(NCc1cc(Cl)cc(Cl)c1)c1ccnc(NC(=O)c2ccccc2)c1`, the melting point was 248 to 251 °C.
The value for `N#Cc1cnc2sc(-c3ccc(CN)cc3)cc2c1Nc1ccc2[nH]ccc2c1` was greater than 260 °C.
For `COc1cc(OC)cc(-c2nn(C(C)c3oc4ccccc4c(=O)c3-c3cccc(F)c3)c3ncnc(N)c23)c1` (stereo unspecified), the melting point lay in the range of 224 to 227 °C.
Regarding `O=C1NCN(c2ccccc2)C12CCN(C[C@@H]1CCc3ccccc3[C@H]1O)CC2` (relative stereo), the melting point is 204 to 205 °C.
Regarding `COc1cc2c(cc1OCc1ccccc1)CCN(Cc1ccccn1)C2`, the melting point fell in the range of 73 to 74 °C.
Regarding `Cc1c2sc3ccccc3nc-2c2ccccc2c1=O`, the melting point was 181 °C.
In the case of `O=S(=O)(Nc1cccc(CCOCc2ccc(-c3ccc(Cl)cc3)cc2F)c1)C(F)(F)F`, the melting point lay within 99 to 101 °C.
In turn, `CC(C)(C#N)c1cc(C#N)cc(Cn2cncn2)c1` displayed a melting point of 90 to 92 °C.
`CCOC(=O)COc1ccc2c(c1)C[C@@H](NC[C@H](O)c1ccccc1)CC2` returned a melting point of 108 to 111 °C.
In the case of `CCCCn1c(=O)c2c(NC)n[nH]c2n(Cc2ccc(Cl)cc2)c1=O` it was 292 to 294 °C.
In turn, `O=C(C1CCCc2c1c1ccccc1n2Cc1ccccc1)N1CCN(c2ccccc2)CC1` (stereo unspecified) had a melting point of 273 to 274 °C.
Compound `N#Cc1ccc2c(c1)Sc1ccccc1C=C2` showed a melting point of 108 to 110 °C.
Turning to `O=C1NCCc2c1c1ccccc1n2CC1CCCC1`, the melting point is 179 to 181 °C.
Regarding `CC(C)(C)C(=O)OCN1C(=O)NC2(C1=O)C(=O)N(Cc1ccc(Cl)c(Cl)c1)c1ccccc12` (stereo unspecified), the melting point fell in the range of 209 to 211 °C.
`CCC1(CO)C=NC(c2nn(Cc3ccccc3F)c3ccccc23)O1` (stereo unspecified) gave a melting point of 137 to 139 °C.
With `Cc1nc2c(C(F)(F)F)cccc2c(-c2ccccc2)c1C(=O)c1ccccc1`, the melting point was 175 to 177 °C.
Consider `Cc1nc2c(OCCCc3ccccc3)cccn2c1CC#N`, for which the melting point was 143 to 145 °C.
For `NS(=O)(=O)c1ccc(NC(=O)Nc2ccc(F)cc2)cc1`, the melting point fell in the range of 242 to 243 °C.
`COc1c(C2CCN(CCCCNC(=O)c3sc(-c4ccc(C#N)cc4)nc3C)CC2)ccc2c1CCCC2`: the melting point lay in the range of 160 to 164 °C.
`C=C(c1ccc(N(C)C)cc1)c1ccc(N2CCCC2)cc1`: the melting point was in the range of 149 to 150 °C.
In the case of `O=C(Oc1ccccc1)c1ccc(N(Cc2ccccc2)Cc2ccccc2)cc1Cl` it was 133 to 135 °C; in that of `O=C1NC(=O)C2(C=CC=C3OCC=C32)N1` (stereo unspecified), 245 to 248 °C; in that of `O=C(Nc1cccnc1Cl)c1ccco1`, 102 °C.
With `CN(C1CCN(CCC(F)(F)F)CC1)S(=O)(=O)c1ccc(Nc2nccc(Nc3ccc(F)cc3)n2)cc1`, the melting point lay in the range of 195 to 196 °C.
`COc1ccc(N2CN(c3ccccc3)C(N)=C3C=NN=C32)cc1` yielded a melting point of 204 to 206 °C.
`Cc1ccc(-c2nc(CCl)co2)o1` yielded a melting point of 93 to 94 °C.
In turn, `FC(F)(c1ccccc1)c1nc(-c2ccncc2)cs1` had a melting point of 54.5 to 55.5 °C.
The value for `CN(C)c1ccc(-c2nnc(-c3ccccc3)o2)cc1` was 135 to 140 °C; that for `N#CC(C#N)=CN(N=C(C#N)C#N)c1ccc(F)cc1F` was 140 to 142 °C; that for `CC(NC(=O)C(Cc1ccc(OCc2ccccc2)cc1)NC(=O)OC(C)(C)C)C(=O)NCC(=O)OCc1ccccc1` (stereo not drawn) (Boc-Tyr(Bn)-Ala-Gly-OBn; configuration not given here) was 145 to 147 °C.
The compound `C=C(C)CNc1cc(Cl)nnc1Cl` gave a melting point of 172 to 175 °C.
`CC(CC#N)C(C#N)(c1cccc(C(F)(F)F)c1)N1CCOCC1` (stereo unspecified) gave a melting point of 115 to 118 °C.
`CC(=O)OC(c1cscc1S(N)(=O)=O)C(C)F` (stereo unspecified) returned a melting point of 92 to 94 °C.
On to `CC1CC(N)=NN1c1ccccc1` (stereo unspecified), for which the melting point fell in the range of 104 to 106 °C.
The value for `O=C1c2ccccc2C(=O)N1CC(=CF)CBr` was 86 to 87 °C; that for `O=[N+]([O-])c1ccc(Oc2ccc3ccc(Oc4ccc([N+](=O)[O-])c(O)c4)cc3c2)cc1O` was 218 to 220 °C.
In turn, `CN(Cc1ccc(NC(=O)C2=Cc3cc(-c4ccsc4)ccc3OCC2)cc1)C1CCOCC1` displayed a melting point of 194 to 195 °C.
As to `CCn1c(C)nc2cc(C(=O)O)ccc21`, the melting point is greater than 250 °C.
`O=C(NCCO)c1cnc(C(=O)NCCO)s1` yielded a melting point of 182 to 184 °C.
Consider `Cc1oc(-c2ccccc2)nc1COc1ccc(COc2ccc(OCc3ccccc3)cc2CC(=O)O)cc1`, for which the melting point lay in the range of 140 to 141 °C.
`COC(CCNC(=O)C(F)(F)F)(c1ccccc1)c1ccccc1`: the melting point is 108 to 110 °C.
The value for `N#Cc1ccc(OCc2ccc3c(c2)OCO3)cc1OC(C(=O)O)c1ccccc1Cl` (racemic) was 144 to 145 °C; that for `CC(C)CNc1nc2c(n1C)C(=O)N1CCN=C1N2Cc1ccc(Cl)cc1` was 185 to 187 °C.
`O=C(c1ccncc1)c1cc(-c2ccncc2)c(N2CCOCC2)s1` registered a melting point of 124 °C.
`O=[N+]([O-])c1ccc2c(c1)NCc1ccccc1O2` came in with a melting point of 154 to 156 °C.
`CC(=O)NC[C@H]1CN(c2ccc3c(c2)CC[C@@H](C)N3C=O)C(=O)O1`: the melting point was in the range of 89 to 91 °C.
Take `Fc1ccc(-c2cn([C@H]3CN4CCC3CC4)nn2)cc1`: the melting point came out at 139 °C.
For the compound `CCOC(=O)C1=C(C)NC(CN2C(=O)c3ccccc3C2=O)=C(C(=O)OCC)C1c1cccc(Cl)c1` (stereo unspecified), the melting point is 135 to 136 °C.
Compound `COc1ccc(-c2csc(C)n2)cc1OC1CC2CCC1C2` (stereo unspecified) yielded a melting point of 81 to 82 °C.
For the compound `CN1CCCC(OC(=O)Nc2ccc(Br)cc2)C1` (stereo unspecified), the melting point is 127 °C.
The value for `Cc1c(C=NO)c2ccccc2n1-c1ccc(OCc2ccccc2)cc1` was 171 to 173 °C; that for `CCCSc1ccc(N)c(C(=O)O)c1` was 91 to 93 °C; that for `O=S(=O)(Nc1ccc(Cl)nc1I)c1ccc2ncsc2c1` was 191 °C.
For the compound `COc1ccc(C2CC(=O)Nc3ccccc3C(=O)C2)cc1` (stereo unspecified), the melting point fell in the range of 138 to 140 °C.
In the case of `O=[N+]([O-])c1ccc2nc(-c3ccccc3)sc2c1` it was 179 to 181 °C.
On to `O=c1oc2cccc(O)c2c(O)c1-c1ccccc1`, for which the melting point lay in the range of 256 to 265 °C.
`CC(=O)NCC1CC(c2ccc(F)cc2)=NO1` (stereo unspecified) registered a melting point of 167 to 168 °C.
In the case of `CCOCc1cnn2c(-c3cccc(C(F)(F)F)c3)ccnc12` it was 110 to 111 °C; in that of `O=C1c2ccccc2CN1CCCCSc1ccncc1`, 57 to 58 °C; in that of `CC1CC(=O)NN=C1c1ccc(NC(=O)CCBr)cc1` (stereo unspecified), 215 to 217 °C.
In the case of `CCOC(=O)N(N)C(=O)c1ccccc1O` it was 126 °C; in that of `CN(C)Cc1ccc(CSCCNC(=O)NCCCN(C)CCN(Cc2ccc(F)cc2)c2ccccn2)o1`, 102 °C; in that of `CCc1c(-c2ccc(OC)cc2)c2c(C(=O)O)c(C(=O)O)c3cc(OC)cc1n32`, 209 to 211 °C.
The compound `CC(=O)Nc1ccc(F)cc1-c1ccc(Cl)c(Cl)c1` yielded a melting point of 138 to 140 °C.
Turning to `CNC(=O)ON=C1N=C(C(C)C)C(C)(C)S1`, the melting point lay within 89 to 91 °C.
In the case of `CCC1(CC)C(=O)ON(C(=O)c2ccccc2)C1=O` it was 76 to 79 °C; in that of `COc1ccc(SCc2ccccc2)c(Cl)c1Cl`, 116 to 117 °C.
`O=C(/C=C/c1cccc(F)c1)NC1CC1`: the melting point is 90 to 91 °C.
Compound `COc1cc2c(O)nc(-c3ccc(Cl)cc3)nc2c(OC)c1OC` registered a melting point of 289 °C.
Regarding `Fc1ccc(-c2c(-c3ccncc3)nn3nccnc23)cc1`, the melting point lay within 177 to 178 °C.
Compound `COC(=O)C(CO)Nc1ccccc1[N+](=O)[O-]` (racemic) returned a melting point of 138 to 140 °C.
In the case of `CCOC(=O)c1cc(Br)c2ccccn2c1=O` it was 156 to 158 °C; in that of `CC(NC(=O)c1cccc(C2(C)C(=O)Nc3cc(Cl)cc(Cl)c3C2=O)c1)c1ccccc1` (stereo unspecified), 91 to 94 °C.
For `COc1cccc(Cn2c(-c3ccccc3)nc(Cl)c2CC(=O)O)c1`, the melting point is 135 to 138 °C.
In the case of `COc1cc(C)c(CCCCCCCCCCCCCCCC(=O)O)c(O)c1OC` it was 45 to 46 °C.
In the case of `Cn1nc2c(N)nc3c(c2c1CC(C)(C)O)CCCC3` it was 228 to 234 °C; in that of `CC(C)(C)OC(=O)NNc1ccc([N+](=O)[O-])cn1`, 132 to 134 °C.
In the case of `Cc1ccc(CSc2nc3cc4c(cc3[nH]2)OCO4)nc1` it was 187 to 188 °C; in that of `CC(C)c1ccc(NC(=N)c2cccc(NC(=O)C=Cc3ccccc3Cl)c2)cc1`, 112 to 118 °C.
For the compound `Cc1nc2c(C)nn(C)c2c(=O)[nH]1`, the melting point was in the range of 258 to 260 °C.
